The source of these data is patent US20240376114A1, “NUCLEAR TRANSPORT MODULATORS AND USES THEREOF” (Karyopharm Therapeutics Inc., priority 2011, published 2024).

The target of data set [1] is T1, CRM1 (Homo sapiens (Human), UniProt O14980). Briefly: RevGFP assay: inhibition of CRM1-mediated nuclear export. Format: cell-based. To be noted: U2OS-RevGFP cells, about 1 hr incubation; read-out: Rev Export [IC50]. As for the experimental part: The ability of exemplary compounds of the invention to inhibit CRM1-mediated nuclear export was assessed in a RevGFP assay. Rev is a protein from human immunodeficiency virus type 1 (HIV-1) and contains a nuclear export signal (NES) in its C-terminal domain and a nuclear localization signal (NLS) in its N-terminal domain. Nuclear export of Rev protein is dependent on the classical NES/CRM1 pathway (Neville et al. 1997).
In this assay, U2OS-RevGFP cells were seeded onto clear-bottomed, black, 384-well plates the day before the experiment. Compounds were serially diluted 1:2 in DMEM, starting from 40 μM in a separate, 384-well plate, and then transferred onto the cells. The cells were incubated with compound for about 1 hr before fixation with 3.7% formaldehyde and nuclei staining with Hoechst 33258. The amount of GFP in cell nuclei was measured and the IC50 of each compound was determined (Kau et al. 2003). […]

The nature of data set [2]: CellTiter 96 AQueous One Solution (MTS) cell proliferation assay. Format: cell-based. The note with it: human, MM.1S multiple myeloma cells; MM.1S cells, 72 h treatment; read-out: Cytotoxicity [EC50]. The source says:
The CellTiter 96® AQueous One Solution cell proliferation assay (Promega) was used on MM.1S multiple myeloma cell line to study the cytotoxic and cytostatic properties of the compounds. The assay is based on the cleavage of the tetrazolium salt, MTS, in the presence of an electron-coupling reagent PES (phenazine ethosulfate). The MTS tetrazolium compound is bioreduced by cells into a colored formazan product that is soluble in tissue culture medium. This conversion is presumably accomplished by NADPH or NADH produced by dehydrogenase enzymes in metabolically active cells. Assays are performed by adding a small amount of the CellTiter 96® AQueous One solution reagent directly to culture wells, incubating for 1-4 hours and then recording the absorbance at 490 nm with a 96-well plate reader.
The cells were seeded at 5×10^3 to 1.5×10^4 cells (depending on cell type) in each well of a 96-well plate in 100 μL of fresh culture medium and adherent cells were allowed to attach overnight. The stock solutions of the compounds were diluted in cell culture medium to obtain eight concentrations of each drug, ranging from 1 nM to 30 μM and DMSO at less than 1% v/v was used as a negative control. The resulting drug solutions were transferred onto the cells. After 72 h of treatment, 20 μl of CellTiter 96® AQueous reagent was added into each well of the 96-well assay plates and the plate was incubated at 37° C. for 1-4 hours in a humidified, 5% CO2 atmosphere. Then the absorbance of each well was recorded at 490 nm using a 96-well plate reader. In most cases, the assay was performed in triplicate and the results were presented as half maximal inhibitory concentration (IC50). Optical density versus compound concentration was plotted and analyzed using non-linear regression equations (IDBS XLfit) and the IC50 for each compound was calculated.

The nature of data set [3]: Pharmacokinetic (PK) assay, plasma AUC. Format: in vivo. The note with it: 10 mg/kg, mouse, PO, 10 mpk, read-out: AUCInf hr * ng/mL (mouse, PO, 10 mpk). The protocol: Pharmacokinetics (PK) play an increasing role in drug discovery and development. Pharmacokinetics is the quantitative study of the time course of drug absorption, distribution, metabolism and/or excretion. When a drug is administered, it distributes rapidly from its administration site into the systemic blood circulation. One measure of the extent of a therapeutic agent's distribution is the area under the plasma concentration-time curve (AUC), calculated to the last measured concentration (AUCt) and extrapolated to infinity (AUCinf). AUC is thus a useful metric to quantitate drug exposure. AUC. Blood was collected from mice (N=3) to contribute to the total of 10 time points (pre-dose, 5 min, 15 min, 30 min, 1 hour, 2 hours, 4 hours, 8 hours, 12 hours and 24 hours post dose). Mice were bled on a rotating basis, each mouse contributing 3 time points to the blood collection. At the designated time points, animals were anaesthetized under isoflurane, and approximately 110 μL of blood per time point was collected via retro-orbital puncture into pre-cooled K2EDTA (anti-coagulant) tubes. Blood samples were put on wet ice and centrifuged (2000 g, 5 min at 4° C.) to obtain plasma within 30 minutes of sample collection. All samples were stored frozen at approximately −80° C. until analysis. Prior to analysis, samples were mixed with internal standard (dexamethasone) in acetonitrile, vortexed, centrifuged, and supernatant was injected for analysis. Concentration of compounds in plasma was determined using LC-MS-MS instrumentation (API 4000, Triple Quadruple with electrospray ionization; Acuity Ultra Performance Liquid Chromatography column C18, with MeOH and formic acid as organic solvents). AUC values were calculated using WinNonlin Professional 6.2 software package, non-compartmental pharmacokinetic model NCA200.

Data set [4] is described as follows: Brain to plasma (B:P) ratio determination. Format: in vivo. The note with it: brain and plasma; mouse, PO at 10 mg/kg, 2 hours post-dose. From the text:
The brain to plasma (B:P) ratio is one method of quantifying the relative distribution of a therapeutic agent in brain tissue to that in circulation and, as such, provides one indication of the brain penetration of a given therapeutic agent. A high brain to plasma ratio is preferred when targeting diseases localized in the central nervous system (CNS), including the brain and the cerebrospinal fluid. However, a lower brain to plasma ratio is generally preferable for non-CNS therapeutic agents to minimize brain penetration and avoid potential side effects caused by unwanted accumulation of the therapeutic agents in the brain and CNS tissue.
Brain to Plasma (B:P) Ratio. […] Following collection, brain tissue was rinsed with cold saline, dried on filter paper, weighed and snap-frozen by placing on dry ice. All samples were stored frozen at approximately −80° C. until analysis. […] Plasma samples were treated with the identical method (except homogenization step) and the concentration of compound in each matrix was calculated based on generated standard curves.

Data set [5] concerns HCT-116 xenografts. Briefly: Inhibition of HCT-116 xenografts in vivo. The protocol:
Mice were inoculated on the hind flank with HCT-116 cell line and the HCT-116 xenografts were grown to approximately 150 mm^3, at which time treatment was initiated. Treatment groups were as follows:
50 mg/kg 5-FU IP, days 1-3;
25 mg/kg Compound 1 compound QD×5 SC (low dose);
75 mg/kg Compound 1 compound QD×5 SC (high dose).

In data set [6] the target is T1, CRM1. Briefly: Immunofluorescence of p21 and p53 localization in HCT-116 cells. Format: cell-based. To be noted: 10 μM, 24 hours. The protocol: HCT-116 cells were incubated with 10 μM Compound 1 for 24 hours, at which time the cells were fixed and stained with antibodies to p21 or p53, or the DNA stain, DAPI.
Data set [7] concerns HCT-116 cells. As to the kind of experiment: Western blot of p53, p21, PARP in cytoplasmic and nuclear fractions of HCT-116 cells. The format is cell-based. To be noted: 10 μM. As for the experimental part:
HCT-116 cells were incubated with 10 μM Compound 1 for 2, 4, 6, 16, or 24 hours (indicated in FIGS. 2A and 2B as “2+,” 4+,” etc.), or with 10 μM Compound 1 for 22 hours and an additional 1 μM Compound 1 for another 2 hours (indicated in FIGS. 2A and 2B as “22+2+”). At the end of the incubation period, total protein extracts were prepared. Cytoplasmic and nuclear proteins were separated, immunoblotted and reacted with antibodies to p53, p21, full-length (FL) PARP, cleaved PARP and lamin B.
On the technique in general: A western blot detects proteins with antibodies after separation by electrophoresis.

Data set [8] deals with HCT-116 cells. As to the kind of experiment: Immunofluorescence of pRb localization in HCT-116 cells. The format is cell-based. To be noted: 10 μM, 24 hours. As for the experimental part: HCT-116 cells were incubated with 10 μM Compound 1 for 24 hours, at which time the cells were fixed and stained with antibodies to pRb or DAPI.
Data set [9] deals with HCT-116 cells. As to the kind of experiment: Western blot of pRb and phosphorylated pRb in HCT-116 cells. The note with it: 10 μM, more than 6 hours. Format: cell-based. The protocol:
HCT-116 cells were incubated with 10 μM Compound 1 for 2, 4, 6, 16, or 24 hours (indicated in FIGS. 3A and 3B as “2+,” 4+,” etc.), or with 10 μM Compound 1 for 22 hours and an additional 1 μM Compound 1 for another 2 hours (indicated in FIGS. 3A and 3B as “22+2+”). At the end of the incubation period, total protein extracts were prepared. Cytoplasmic and nuclear proteins were separated, immunoblotted and reacted with antibodies to phosphorylated pRb (pRb^phos), pRb, actin and lamin B.

The test system of data set [10] is HCT-116 cells. As to the kind of experiment: Immunofluorescence of APC and IκB localization in HCT-116 cells. The format is cell-based. To be noted: 10 μM, 24 hours. The protocol: HCT-116 cells were incubated with 10 μM Compound 1 for 24 hours, at which time the cells were fixed and stained with antibodies to APC or IκB, or DAPI.
The subject of data set [11] is splenocytes and circulating CD8 cells. Briefly: FACS of immune cells at day 26 of the EAE model. Format: in vivo, mouse. The note with it: day 26, high dose (75 mg/kg). The source says:
On day 26, a subset of mice was sacrificed and immune cells were subjected to fluorescence-activated cell sorting (FACS) using standard methods.

For data set [12], the system named is EAE model of multiple sclerosis. To be noted: 25 mg/kg and 75 mg/kg, oral gavage, 3 days per week.

Structures are written as SMILES. Counter-ions that a name gives are not always drawn.

T1 sequence (O14980 whole entry, the tested form may be a part): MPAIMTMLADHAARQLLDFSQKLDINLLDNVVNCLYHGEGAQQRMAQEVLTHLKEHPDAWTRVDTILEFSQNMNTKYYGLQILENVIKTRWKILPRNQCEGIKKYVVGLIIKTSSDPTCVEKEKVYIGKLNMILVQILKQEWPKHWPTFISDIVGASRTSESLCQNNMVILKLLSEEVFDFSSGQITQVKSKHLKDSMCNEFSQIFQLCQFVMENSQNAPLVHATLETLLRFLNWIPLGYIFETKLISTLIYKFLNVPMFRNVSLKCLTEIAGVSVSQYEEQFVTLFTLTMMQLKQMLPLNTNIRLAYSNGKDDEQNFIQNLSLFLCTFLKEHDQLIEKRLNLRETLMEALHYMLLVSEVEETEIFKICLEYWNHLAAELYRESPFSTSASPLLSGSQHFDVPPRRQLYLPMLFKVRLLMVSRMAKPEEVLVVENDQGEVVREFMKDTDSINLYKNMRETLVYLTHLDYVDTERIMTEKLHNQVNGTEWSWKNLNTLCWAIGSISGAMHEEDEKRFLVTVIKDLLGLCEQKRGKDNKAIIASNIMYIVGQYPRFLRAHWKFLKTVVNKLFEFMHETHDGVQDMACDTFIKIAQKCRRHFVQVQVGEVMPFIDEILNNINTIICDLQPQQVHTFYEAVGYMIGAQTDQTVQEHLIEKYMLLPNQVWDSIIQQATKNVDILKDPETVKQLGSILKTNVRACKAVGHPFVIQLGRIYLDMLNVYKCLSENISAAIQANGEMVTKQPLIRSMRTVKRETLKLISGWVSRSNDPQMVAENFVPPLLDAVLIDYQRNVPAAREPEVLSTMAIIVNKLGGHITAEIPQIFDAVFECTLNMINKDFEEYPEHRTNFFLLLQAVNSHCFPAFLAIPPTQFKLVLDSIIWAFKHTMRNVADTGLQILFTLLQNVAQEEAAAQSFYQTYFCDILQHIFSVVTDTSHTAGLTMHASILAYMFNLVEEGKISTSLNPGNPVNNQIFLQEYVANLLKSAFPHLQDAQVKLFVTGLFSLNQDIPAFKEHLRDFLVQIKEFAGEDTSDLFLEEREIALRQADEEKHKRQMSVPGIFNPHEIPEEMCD

As for `O=C(/C=C\n1cnc(-c2cc(C(F)(F)F)cc(C(F)(F)F)c2)n1)NC1C2CNCC21` (stereo not drawn) [Compound 56, (Z)—N-(3-azabicyclo[3.1.0]hexan-6-yl)-3-(3-(3,5-bis(trifluoromethyl)phenyl)-1H-1,2,4-triazol-1-yl)acrylamide hydrochloride], the IC50 (as a rule, the point on the concentration scale where inhibition reaches its midpoint) in data set [1] is below 1000 nM. The half-maximal effective concentration (EC50) (commonly the midpoint of the concentration-response curve) at 72 h in [2] is below 1000 nM.

`O=C(/C=C/n1cnc(-c2cc(C(F)(F)F)cc(C(F)(F)F)c2)n1)N1CC(F)(F)C1` [Compound 4, (E)-3-(3-(3,5-bis(trifluoromethyl)phenyl)-1H-1,2,4-triazol-1-yl)-1-(3,3-difluoroazetidin-1-yl)prop-2-en-1-one]: in data set [1], the IC50 was below 1000 nM. The half-maximal effective concentration (EC50) at 72 h in data set [2] is below 1000 nM.

As for `O=C(/C=C\n1cnc(-c2cc(C(F)(F)F)cc(C(F)(F)F)c2)n1)N1CC(F)(F)C1` [Compound 1, (Z)-3-(3-(3,5-bis(trifluoromethyl)phenyl)-1H-1,2,4-triazol-1-yl)-1-(3,3-difluoroazetidin-1-yl)prop-2-en-1-one], the 50% effective concentration (EC50) at 72 h in [2] was below 1000 nM. The AUC(0-inf) in [3] was 12300 ng·h/mL. Also, in data set [4], the Kp (usually the ratio of the level in a tissue or fluid to that in plasma or blood) at 2 h stood at 5. For the same compound, the “Tumor growth (tumor volume as percentage of initial volume)” value in [5] (25 or 75 mg/kg QDx5 SC, HCT-116 xenograft mice) is reported as “inhibited tumor growth”. In addition, in data set [5] (vs 50 mg/kg 5-FU IP days 1-3), the “Anti-tumor effect compared to 5-FU” value is on record as “superior anti-tumor effects compared to 5-FU”. Moreover, in data set [6], the “Nuclear export function of CRM1” value was “inhibited the nuclear export function of CRM1”; the “Subcellular localization of p21 and p53” value was “both p21 and p53 were concentrated in the nucleus”. Besides, the “Induction of p21 and p53 (Western blot)” value in data set [7] (2-24 hours) is “induces p21 and p53 in both cytoplasmic and nuclear fractions”. Moreover, the “Induction of apoptosis (PARP decrease, cleaved PARP increase)” value in data set [7] (24 hours) was “induces apoptosis in HCT-116 cells after 24 hours”. Further, the “Nuclear localization of pRb” value in data set [8] is listed as “induced nuclear localization of the tumor suppressor gene protein, pRb”. The “Phosphorylation state of pRb (Western blot)” value in data set [9] is “induces dephosphorylation of pRb in both cytoplasmic and nuclear fractions”. The “Nuclear localization of APC and IκB” value in data set [10] was “induced the nuclear localization of the tumor suppressor proteins, APC and IκB”. Besides, the “Number of splenocytes and circulating CD8 cells (FACS)” value in [11] is “modest decrease in the number of splenocytes and circulating CD8 cells”. Moreover, the EAE clinical score entry in data set [12] was “reduced the clinical score in a statistically significant manner”.
